Where a name gives a salt, the structure may show the parent alone.
Legend:
[1] = test system: pathogenic escherichia coli SGD strain; experiment: Protection against escherichia coli artificial (challenge) infection in weaned piglets (Embodiment 9); assay type: in vivo, pigs; settings: for Death rate: challenged control 60; for Incidence rate (%, calculated by diarrhea): challenged control 100
Procedure: The 33-day-old pigs were intramuscularly injected with pathogenic escherichia coli, the diarrhea and deaths of the pigs were observed, continuous observation was performed for one week, the onset and deaths were subjected to statistics, and the protection effects of the enrofloxacin in different forms against the pathogenic escherichia coli in the artificial infection were compared. Pure feed which was not added with the enrofloxacin in any form was taken as a control group, wherein one portion of pigs in the control group were intramuscularly injected with the pathogenic escherichia coli and was taken as the control group without administration but with challenge (the fifth group), and the remainder were not intramuscularly injected with the pathogenic escherichia coli and was taken as the control group without administration and without challenge (the sixth group).

[2] = test system: duroc-landrace-yorkshire hybrid pigs; experiment: Influence of enrofloxacin base, sodium salt and hydrochloride on palatability of pig feed (Embodiment 2); assay type: in vivo; settings: compared with blank control group
Procedure: Enrofloxacin base, enrofloxacin sodium and enrofloxacin hydrochloride were respectively added in feed in each group. All the test pigs were synchronously fasted for 12 h before testing. The test pigs in each group were respectively subjected to free feed intake of feed containing enrofloxacin in different forms after the 12 h fast. […] Feed consumption of different test groups was subjected to statistics and the influence of different forms of the enrofloxacin added in the feed on the feed intake of the pigs was evaluated. The pure feed which was not added with the enrofloxacin or the salt thereof was taken as control.

[3] = Pharmacokinetic research in pigs, plasma concentration by HPLC (Embodiment 8); assay type: in vivo; settings: piglets
Procedure: Jugular venous blood collection was performed at 30 min, 1 h, 2 h, 4 h, 8 h, 12 h and 24 h after administration. Plasma was separated, the concentration of the enrofloxacin in the plasma in the different test pigs after administration was determined by high-performance liquid chromatography respectively, and whether the difference in the concentration of the enrofloxacin in the plasma in each test group after administration was significant or not and whether the elimination rule of the enrofloxacin in blood was consistent or not was subjected to statistical analysis.

sensitive bacteria = settings: overwhelming majority of strains of sensitive bacteria; cited from earlier work
[4] = 100 ppm in feed, challenge 2.0 ×10^7 CFU/pig i.m., one week
[5] = 100 ppm equivalent fed twice daily through a gastric tube according to feed intake, challenge 2.0 ×10^7 CFU/pig

Structure (SMILES): CCN1CCN(c2cc3c(cc2F)c(=O)c(C(=O)[O-])cn3C2CC2)CC1.[Ag+] [enrofloxacin silver]
- Death rate [1, 4]: 0%
- Incidence rate (%, calculated by diarrhea) [1, 4]: 0%

Structure (SMILES): CCN1CCN(c2cc3c(cc2F)c(=O)c(C(=O)O)cn3C2CC2)CC1 [enrofloxacin sodium]
- Decline in feed intake ([2]; 5 ppm in feed): 50.8%
- Decline in feed intake ([2]; 25 ppm in feed): 73.1%
- Decline in feed intake ([2]; 100 ppm in feed): 94.1%

Structure (SMILES): CCN1CCN(c2cc3c(cc2F)c(=O)c(C(=O)[O-])cn3C2CC2)CC1.CCN1CCN(c2cc3c(cc2F)c(=O)c(C(=O)[O-])cn3C2CC2)CC1.[Zn+2] [enrofloxacin zinc]
- Death rate [1, 4]: 0%
- Incidence rate (%, calculated by diarrhea) [1, 4]: 0%

Structure (SMILES): CCN1CCN(c2cc3c(cc2F)c(=O)c(C(=O)[O-])cn3C2CC2)CC1.CCN1CCN(c2cc3c(cc2F)c(=O)c(C(=O)[O-])cn3C2CC2)CC1.[Cu+2] [enrofloxacin copper]
- Plasma concentration (total of enrofloxacin and ciprofloxacin) ([3]; 30 min after 10 mg/kg body weight by gastric tube): 1.417 ± 0.169^A ug/ml
- Plasma concentration (total of enrofloxacin and ciprofloxacin) ([3]; 1 h after 10 mg/kg body weight by gastric tube): 2.121 ± 0.198^B ug/ml
- Plasma concentration (total of enrofloxacin and ciprofloxacin) ([3]; 2 h after 10 mg/kg body weight by gastric tube): 5.187 ± 0.558^C ug/ml
- Plasma concentration (total of enrofloxacin and ciprofloxacin) ([3]; 4 h after 10 mg/kg body weight by gastric tube): 5.465 ± 0.529^D ug/ml
- Plasma concentration (total of enrofloxacin and ciprofloxacin) ([3]; 8 h after 10 mg/kg body weight by gastric tube): 2.986 ± 0.234^E ug/ml
- Plasma concentration (total of enrofloxacin and ciprofloxacin) ([3]; 12 h after 10 mg/kg body weight by gastric tube): 1.785 ± 0.215^F ug/ml
- Plasma concentration (total of enrofloxacin and ciprofloxacin) ([3]; 24 h after 10 mg/kg body weight by gastric tube): 0.294 ± 0.044^G ug/ml
- Death rate [1, 4]: 0%
- Incidence rate (%, calculated by diarrhea) [1, 4]: 0%

Structure (SMILES): CCN1CCN(c2cc3c(cc2F)c(=O)c(C(=O)O)cn3C2CC2)CC1 [enrofloxacin base, enrofloxacin]
- Death rate [1, 5]: 0%
- Incidence rate (%, calculated by diarrhea) [1, 5]: 0%
- Decline in feed intake ([2]; 5 ppm in feed): 47.2%
- Decline in feed intake ([2]; 25 ppm in feed): 74.2%
- Decline in feed intake ([2]; 100 ppm in feed): 93.3%
- MIC (sensitive bacteria): lower than 1 ug/ml

Structure (SMILES): CCN1CCN(c2cc3c(cc2F)c(=O)c(C(=O)O)cn3C2CC2)CC1 [enrofloxacin hydrochloride]
- Decline in feed intake ([2]; 5 ppm in feed, hydrochloride): 49.5%
- Decline in feed intake ([2]; 25 ppm in feed, hydrochloride): 73.4%
- Decline in feed intake ([2]; 100 ppm in feed, hydrochloride): 93.7%
